From patent US10285986B2, “Compounds and anti-tumor NQO1 substrates” (The Board of Trustees of the University of Illinois, priority 2011, dated 2019)
In brackets after ≈: the same amount, converted by molar mass. Where two headings read alike, the source gives them in different places. Marks after values point to notes of the source that are not given here.

Experiments:
[1] = Solubility in organic solvents; assay type: physicochemical; conditions: for solubility: organic solvent or mixture, thermodynamic from solid
Experimental: The solubility of DNQ derivatives in organic solvents was determined by measuring the amount of a given solvent required to dissolve a known amount of compound. Solvent was added to the compound in 50 μL aliquots and the slurry was sonicated. […] Solubility was assessed in DMSO, dichloromethane, and 33% methanol in dichloromethane (FIGS. 9, 10, and 11, respectively).

[2] = Solubility in organic solvents; assay type: physicochemical; conditions: organic solvent or mixture, thermodynamic from solid; THF; Table 1
[3] = system: MCF-7 cells; test: Cytotoxicity to MCF-7 cells with or without 25 μM dicoumarol (sulforhodamine B assay); assay type: cell-based, human
Experimental: The NQO1-dependent cytotoxicity of the first set of derivatives was determined in MCF-7 cells which express high levels of NQO1. Cells were exposed to DNQ for 2 hours in the presence or absence of 25 μM DIC. The media was then removed and cells were washed once with media then fresh media was added and the cells were incubated for 72 hours. Cell death was assessed using the sulforhodamine B assay previously described. […] Substitution off the nitrogen appeared well tolerated (4-14 and 4-15).
The DNQ derivatives synthesized were assayed for their toxicity to MCF-7 cells with or without DIC. The data from these experiments is organized in Table 4.2. […] This tolerance of sterically-demanding substituents corresponds with a flexible and promiscuous NQO1 active site. The poor activity of hydroxyl derivative 4-41 may be a result of either poor binding with the largely hydrophobic NQO1 active site or with an excessively strong substrate-enzyme interaction because of hydrogen bonding.

[4] = Aqueous solubility in pH 7.4 PBS by LC-MS; assay type: physicochemical; conditions: phosphate buffered saline, pH 7.4, aqueous buffer, thermodynamic from solid, PBS pH 7.4; Table 4.3
Experimental: The aqueous solubility of DNQ at pH 7.4 in phosphate buffered saline (PBS) was measured by LC-MS. DNQ was sonicated for 30 minutes in PBS then undissolved solid was removed by filtration through a 0.45 μm syringe filter and the filtrate was analyzed by LC-MS (λ=275 nm, ESI-TOF in negative mode). The optimal sonication time was determined by sonicating DNQ for 1, 5, 10, and 30 minutes. While the concentration of DNQ in solution increased substantially between 1, 5, and 10 minutes, there was only a minor difference between 10 and 30 minutes. During the 30 minute sonication the water bath warmed to 45° C. (samples were cooled to room temperature before filtration). A calibration curve was generated from 1-100 μM by dissolving DNQ in methanol to a concentration of 500 μM and making dilutions of this stock in 80:20 water:methanol. The calibration curve (measure by UV absorbance) was linear over this range; 1 μM was approximately the limit of detection. […] The solution was very pale yellow.
The aqueous solubility of the compounds was determined by an LC-MS assay as described in the specification above. We applied the calibration curve generated for DNQ to the derivatives under the assumption that the UV profile of the derivatives of DNQ would be similar to that of DNQ.
After sonication and filtration most of the aqueous solutions were colorless. The solutions of DNQ, 4-31, and 4-37 were faintly yellow while 4-8, 4-14 and 4-41 were substantially more colored. The solution of 4-8, 4-14 and 4-41 were diluted 10-fold with PBS prior to LC-MS analysis to ensure that the concentrations fell within the range of the calibration curve.

[5] = molecular target: NQO1 (Homo sapiens, UniProt P15559); test: NQO1 enzymatic measurements in vitro; assay type: biochemical; conditions: 1 μM substrate
Sequence of NQO1 (P15559 whole entry): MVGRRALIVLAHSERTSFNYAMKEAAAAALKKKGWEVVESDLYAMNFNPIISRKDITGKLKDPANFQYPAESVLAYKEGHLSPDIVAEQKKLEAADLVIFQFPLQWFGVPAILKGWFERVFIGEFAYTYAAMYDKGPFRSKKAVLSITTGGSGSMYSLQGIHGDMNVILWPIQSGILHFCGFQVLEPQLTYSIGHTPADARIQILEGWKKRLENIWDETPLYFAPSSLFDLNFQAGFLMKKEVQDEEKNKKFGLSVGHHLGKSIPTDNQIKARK
Experimental: As further evidence that the activity of these DNQ derivatives is dependent on their ability to be reduced by NQO1, full enzymatic measurements in vitro were performed. We found a strong correlation between catalytic efficiency of substrates in vitro and their cell culture toxicity. […] This provides strong evidence that the cytotoxicity of DNQ and its derivatives are dependent primarily upon the activity of NQO1 within the cell.

[6] = Solubility in 20% HPβCD solution (pH modulation protocol); assay type: physicochemical; conditions: 20% HPβCD in pH 7.4 PBS, pH 7.4, aqueous with cosolvent or surfactant or cyclodextrin, thermodynamic from solid; 20% HPβCD; Table 4.3
Experimental: The protocol for formulating DNQ compounds in HPβCD is as follows: the DNQ compound is slurried in a 20% solution of HPβCD in pH 7.4 PBS and the pH is then increased by the addition of 10 M NaOH to induce dissolution of the DNQ compound. The pH is returned to pH 7.5-8.0 by the careful addition of 1 M HCl. A 3.3 mM solution of the DNQ compound can be made by this method which is stable at least 24 hours. This represents a 30-fold increase in solubility of DNQ over PBS alone.
Although we were pleased to find active derivatives of DNQ that were up to 4-fold more soluble in water—sufficiently soluble for continuous IV infusion for human administration—this level of solubility was insufficient for animal studies by bolus injection. […] We used the same pH modulation protocol outlined for DNQ described in the specification above. The results are organized in Table 4.3 and FIG. 8. While all compounds were more soluble in HPβCD than in buffer alone, the fold increase in solubility varied widely.

[7] = 2:1 CH2Cl2:MeOH, Table 4.3, read-out: Solubility in 2:1 CH2Cl2:MeOH
[8] = CH2Cl2:MeOH 2:1, Table 1, read-out: CH2Cl2:MeOH 2:1 solubility
[9] = CH2Cl2, Table 1, read-out: CH2Cl2 solubility
[10] = DMSO, Table 1, read-out: DMSO solubility
[11] = Homo sapiens, MCF7, 2 h, Table 4.1, 2 h exposure, no DIC, ± s.e., read-out: IC50 vs. MCF-7 cells
[12] = Homo sapiens, MCF7, Table 1, read-out: MCF7 IC50
[13] = Homo sapiens, MCF7, classification in figure legends of FIGS. 7-11, read-out: IC50 ("active" / generally "inactive" compounds)
[14] = Homo sapiens, MCF7, read-out: IC50 vs. MCF-7 cells +25 μM DIC, Table 4.1, +25 μM DIC, ± s.e.
[15] = CH2Cl2, Table 4.3, read-out: Solubility in CH2Cl2
[16] = DMSO, Table 4.3, read-out: Solubility in DMSO
[17] = Homo sapiens, MCF7, Table 4.2, no DIC, ± s.e., read-out: IC50 vs. MCF-7 cells
[18] = Homo sapiens, MCF7, read-out: IC50 vs. MCF-7 cells +25 μM DIC, Table 4.2, +25 μM DIC, ± s.e.

SMILES	solubility [2]	Solubility in CH2Cl2 ([1]; CH2Cl2, Table 4.3)	Solubility in DMSO ([1]; DMSO, Table 4.3)	solubility [1, 7]	solubility [1, 8]	solubility [1, 9]	solubility [1, 10]	IC50 [3, 12]	IC50 [3, 13]	Fold Protection of MCF7 cells w/ 25 μM dicoumarol ([3]; Table 1)	solubility at 30 min [4]	NQO1 Initial Velocity @ 1 μM [5]	IC50 [3, 17]	IC50 [3, 18]	Fold protection by DIC ([3]; Table 4.2)	also measured
Cc1cc(=O)[nH]c2c1C(=O)c1c(C)cc(=O)[nH]c1C2=O [Compound 2-78, reference compound]	–	–	–	–	–	–	–	–	–	–	–	–	–	–	–	solubility in solvents evaluated [1]: insoluble in all solvents evaluated except concentrated acids or bases
CCCc1cc(=O)n(C)c2c1C(=O)c1c(C)cc(=O)[nH]c1C2=O [Compound 4-9]	4.6 mM (≈ 1440 µg/mL)	6.1 mM (≈ 1910 µg/mL)	10 mM (≈ 3120 µg/mL)	18 mM (≈ 5620 µg/mL)	18 mM (≈ 5620 µg/mL)	6.1 mM (≈ 1910 µg/mL)	10 mM (≈ 3120 µg/mL)	0.93 µM	> 0.5 µM	2.8	0.059 mM (≈ 18.4 µg/mL)	600 ± 100	–	–	–	IC50 [3, 11]: 0.9 ± 0.25 µM; IC50 [3, 14]: 2.6 ± 0.6 µM; Fold protection by DIC ([3]; Table 4.1): 2.8
CCc1cc(=O)[nH]c2c1C(=O)c1c(C)cc(=O)n(C)c1C2=O [Compound 4-11]	3.9 mM (≈ 1160 µg/mL)	11 mM (≈ 3280 µg/mL)	16 mM (≈ 4770 µg/mL)	35 mM (≈ 10400 µg/mL)	35 mM (≈ 10400 µg/mL)	11 mM (≈ 3280 µg/mL)	16 mM (≈ 4770 µg/mL)	–	> 0.5 µM	–	0.105 mM (≈ 31.3 µg/mL)	–	–	–	–	IC50 [3, 11]: 0.55 ± 0.06 µM; IC50 [3, 14]: 4.9 ± 0.8 µM; Fold protection by DIC ([3]; Table 4.1): 8.9
CCCc1cc(=O)[nH]c2c1C(=O)c1c(C)cc(=O)n(C)c1C2=O [Compound 4-12]	–	2.0 mM (≈ 625 µg/mL)	4.2 mM (≈ 1310 µg/mL)	10 mM (≈ 3120 µg/mL)	10 mM (≈ 3120 µg/mL)	2 mM (≈ 625 µg/mL)	4.2 mM (≈ 1310 µg/mL)	3.4 µM	> 0.5 µM	1.6	0.035 mM (≈ 10.9 µg/mL)	250*	–	–	–	IC50 [3, 11]: 3.4 ± 0.6 µM; IC50 [3, 14]: 5.3 ± 1.2 µM; Fold protection by DIC ([3]; Table 4.1): 1.6
CCCCCCCn1c2c(c(C)cc1=O)C(=O)c1c(C)cc(=O)[nH]c1C2=O [Compound 4-25]	–	–	–	–	–	–	–	–	< 0.5 µM	–	< 0.005 mM	–	0.42 ± 0.11 µM	4.5 ± 0.4 µM	11	solubility [6]: 3 mM (≈ 1110 µg/mL); solubility [1, 15]: 30 mM (≈ 11100 µg/mL); solubility [1, 16]: 13 mM (≈ 4790 µg/mL)
CCCCn1c2c(c(CCC)cc1=O)C(=O)c1c(C)cc(=O)[nH]c1C2=O [Compound 4-26]	17 mM (≈ 6020 µg/mL)	24 mM (≈ 8510 µg/mL)	14 mM (≈ 4960 µg/mL)	75 mM (≈ 26600 µg/mL)	75 mM (≈ 26600 µg/mL)	24 mM (≈ 8510 µg/mL)	14 mM (≈ 4960 µg/mL)	0.77 µM	> 0.5 µM	2.8	< 0.005 mM	1300 ± 200	0.77 ± 0.19 µM	2.2 ± 0.6 µM	2.8	–
CCCCn1c2c(c(C)cc1=O)C(=O)c1c(CCC)cc(=O)[nH]c1C2=O [Compound 4-27]	12 mM (≈ 4250 µg/mL)	17 mM (≈ 6020 µg/mL)	10 mM (≈ 3540 µg/mL)	49 mM (≈ 17400 µg/mL)	49 mM (≈ 17400 µg/mL)	17 mM (≈ 6020 µg/mL)	10 mM (≈ 3540 µg/mL)	6.3 µM	> 0.5 µM	1.1	< 0.005 mM	350 ± 10	6.3 ± 1.1 µM	6.8 ± 1.6 µM	1.1	–
CCCCn1c2c(c(CCC)cc1=O)C(=O)c1c(CCC)cc(=O)[nH]c1C2=O [Compound 4-28]	17 mM (≈ 6500 µg/mL)	35 mM (≈ 13400 µg/mL)	7.1 mM (≈ 2720 µg/mL)	64 mM (≈ 24500 µg/mL)	64 mM (≈ 24500 µg/mL)	35 mM (≈ 13400 µg/mL)	7.1 mM (≈ 2720 µg/mL)	36 µM	> 0.5 µM	0.9	< 0.005 mM	75 ± 4	36 ± 11 µM	31 ± 10 µM	0.9	–
CCc1cc(=O)[nH]c2c1C(=O)c1c(CC)cc(=O)n(C)c1C2=O [Compound 4-29]	6.2 mM (≈ 1940 µg/mL)	10 mM (≈ 3120 µg/mL)	21 mM (≈ 6560 µg/mL)	46 mM (≈ 14400 µg/mL)	46 mM (≈ 14400 µg/mL)	10 mM (≈ 3120 µg/mL)	21 mM (≈ 6560 µg/mL)	5 µM	> 0.5 µM	1.2	0.084 mM (≈ 26.2 µg/mL)	250 ± 20	3.8 ± 1.2 µM	4.8 ± 1.1 µM	1.3	–
Cc1cc(=O)[nH]c2c1C(=O)c1c(C)cc(=O)n(C3CCCCCCC3)c1C2=O [Compound 4-39]	–	–	–	46 mM (≈ 17500 µg/mL)	–	–	–	–	> 0.5 µM	–	0.024 mM (≈ 9.13 µg/mL)	–	0.83 ± 0.07 µM	4.1 ± 0.8 µM	3.8	solubility [1, 15]: 120 mM (≈ 45700 µg/mL); solubility [1, 16]: 71 mM (≈ 27000 µg/mL)
Cc1cc(=O)[nH]c2c1C(=O)c1c(C)cc(=O)n(CCCO)c1C2=O [Compound 9-281]	0.67 mM (≈ 220 µg/mL)	0.3 mM (≈ 98.5 µg/mL)	24 mM (≈ 7880 µg/mL)	11 mM (≈ 3610 µg/mL)	11 mM (≈ 3610 µg/mL)	0.3 mM (≈ 98.5 µg/mL)	24 mM (≈ 7880 µg/mL)	0.79 ± 0.1 µM	> 0.5 µM	4	0.485 mM (≈ 159 µg/mL)	1600 ± 200	0.68 ± 0.15 µM	3.4 ± 0.6 µM	5.0	–
CO[C@@]12[C@H](COC(N)=O)C3=C(C(=O)C(C)=C(N)C3=O)N1C[C@@H]1N[C@@H]12 [MMC, mitomycin C, reference compound]	–	–	–	–	–	–	–	–	–	1	–	–	–	–	–	IC50 ([3]; Table 1, read-out: MCF7 IC50): 14 µM
CC1=C(N2CC2)C(=O)C(CO)=C(N2CC2)C1=O [RH1, reference compound]	–	–	–	–	–	–	–	–	–	0.85	–	–	–	–	–	IC50 ([3]; Table 1, read-out: MCF7 IC50): 0.21 µM
Cc1cc(=O)n(C)c2c1C(=O)c1c(C)cc(=O)n(C)c1C2=O [SCH, reference compound]	3.7 mM (≈ 1100 µg/mL)	–	–	–	60 mM (≈ 17900 µg/mL)	25 mM (≈ 7460 µg/mL)	15 mM (≈ 4470 µg/mL)	3.9 µM	–	3.5	–	32 ± 2	–	–	–	–
